Type in all cases: in vivo
One test concerns cucumber downy mildew. Description: Fungicidal activity on potted plants, cucumber downy mildew. As to conditions: spray on potted plant, inoculation after 24 hours.
The test system of the next test is wheat powdery mildew. As to the kind of experiment: Fungicidal activity on potted plants, wheat powdery mildew. As to conditions: spray on potted plant, inoculation after 24 hours.
For another test, the system named is cucumber grey mold. As to the kind of experiment: Fungicidal activity on potted plants, cucumber grey mold. As to conditions: 500 ppm, spray on potted plant, inoculation after 24 hours.
The test system of a further test is armyworm. As to the kind of experiment: Insecticidal activity, Potter spraying tower, armyworm. As to conditions: 150 ppm, mortality 2 to 3 days after treatment. Here is the method:
(§1) Determination of insecticidal and acaricidal activities against plant diseases of selected compounds were carried out by following procedure:
(§2) Technical samples were dissolved in acetone and diluted to required concentration with water containing 0.1% of tween 80. Armyworm, diamondback moth and green peach aphid were treated with Potter spraying tower, and culex mosquito was treated with dipping culture method. Mortality investigation of test insects was carried out 2 to 3 days after treatment.

The test system of another test is diamondback moth. Description: Insecticidal activity, Potter spraying tower, diamondback moth. As to conditions: 150 ppm, mortality 2 to 3 days after treatment. Here is the method:
as §1, §2

The test system of the next test is green peach aphid. As to the kind of experiment: Insecticidal activity, Potter spraying tower, green peach aphid. As to conditions: 150 ppm, mortality 2 to 3 days after treatment. Here is the method: as §1, §2
The subject of the next test is culex mosquito. Description: Insecticidal activity, dipping culture method, culex mosquito. As to conditions: 150 ppm, mortality 2 to 3 days after treatment. Here is the method: as §1, §2
Another test relates to tomato early blight. As to the kind of experiment: Fungicidal activity on potted plants, tomato early blight. Conditions: 100 ppm.
For a further test, the system named is wheat head blight. Conditions: 100 ppm.
The subject of another test is grape downy mildew. Description: Fungicidal activity on potted plants, grape downy mildew. Conditions: 100 ppm.
For test [1], the system named is corn southern leaf blight. Description: Fungicidal activity on potted plants, corn southern leaf blight. As to conditions: 100 ppm.
The next test has as its system tomato late blight. As to conditions: 100 ppm.
For another test, the system named is apple ring rot. Description: Fungicidal activity on potted plants, apple ring rot. Conditions: 100 ppm. Here is the method:
Determination of fungicidal activities against plant diseases of selected compounds were carried out by following procedure:
Technical samples were dissolved in DMF and diluted to required concentration wtih water containing 0.1% tween 80. Test solution was sprayed onto potted plant. Pathogen inoculation was carried out after 24 hours then plants were hold in growth chambers containing constant temperature and moisture for effect. When untreated plant was under desirable disease severity (after 1 week approximately), assessment were carried out by visual observation.

Test [2] deals with apple alternaria leaf spot. Description: Fungicidal activity on potted plants, apple alternaria leaf spot. Conditions: 100 ppm.
The subject of the next test is grape white rot. Description: Fungicidal activity on potted plants, grape white rot. Conditions: 100 ppm.
A further test concerns rape sclerotiniose. As to the kind of experiment: Fungicidal activity on potted plants, rape sclerotiniose. Conditions: 100 ppm.

`CO/C=C(/C(=O)OC)c1ccccc1COc1cc(-c2ccc([N+](=O)[O-])cc2)no1` [Compound 86]: the “control against cucumber downy mildew” value in the test on cucumber downy mildew (50 ppm) and with cucumber downy mildew (500 ppm) was 100% in each case. Also, the “control against wheat powdery mildew” value in the test on wheat powdery mildew (50 ppm) and in the test with wheat powdery mildew (500 ppm) was 100% in each case.

Regarding `CO/N=C(/C(=O)OC)c1ccccc1COc1cc(-c2ccc(Cl)nc2)nn1C` [Compound 287], the “control against cucumber downy mildew” value in the test on cucumber downy mildew (50 ppm) and in the test on cucumber downy mildew (500 ppm) was 100% in each case. The “control against wheat powdery mildew” value in the test on wheat powdery mildew (50 ppm) and with wheat powdery mildew (500 ppm) was 100% each time.

For the compound `CO/C=C(/C(=O)OC)c1ccccc1COc1cc(-c2ccc(Cl)nc2)no1` [Compound 151], the “control against cucumber grey mold” value with cucumber grey mold is 100%. The “control against wheat powdery mildew” value in the test with wheat powdery mildew (500 ppm) was 100%.

`CO/N=C(/C(=O)OC)c1ccccc1COc1cc(-c2ccccc2)nn1C` [Compound 247]: in the test on cucumber grey mold, the “control against cucumber grey mold” value turned out to be 100%. The “control against wheat powdery mildew” value in the test on wheat powdery mildew (500 ppm) stood at 100%.

For the compound `CO/C=C(/C(=O)OC)c1ccccc1COc1cc(-c2cc(F)c(Cl)cc2Cl)nn1C` [Compound 11], the “control against cucumber downy mildew” value in the test on cucumber downy mildew (500 ppm) was determined as 100%. Further, the “control against wheat powdery mildew” value with wheat powdery mildew (500 ppm) came to 100%.

Take `CNC(=O)/C(=N/OC)c1ccccc1COc1cc(-c2ccc(Cl)cc2)nn1C(C)C` [Compound 435]: the “control against wheat powdery mildew” value with wheat powdery mildew (500 ppm) is listed as 100%.

For the compound `CO/C=C(/C(=O)OC)c1ccccc1COc1cc(-c2ccc(OCC(F)(F)F)cc2)nn1C` [Compound 74], in the test with cucumber downy mildew (500 ppm), the “control against cucumber downy mildew” value is listed as 100%. The “control against wheat powdery mildew” value in the test on wheat powdery mildew (500 ppm) is 100%.

In the case of `CO/C=C(/C(=O)OC)c1ccccc1COc1cc(-c2ccccc2)no1` [Compound 83], the “control against cucumber downy mildew” value in the test on cucumber downy mildew (500 ppm) turned out to be 100%. The “control against wheat powdery mildew” value with wheat powdery mildew (500 ppm) amounted to 100%.

As to `CO/C=C(/C(=O)OC)c1ccccc1COc1c(C)c(-c2ccc(Cl)cc2)nn1C` [Compound 30], in the test with armyworm, the control of armyworm turned out to be 100%. For the same compound, the “control of diamond backmoth” value with diamondback moth was 100%. Also, the “control against cucumber downy mildew” value in the test with cucumber downy mildew (50 ppm) and with cucumber downy mildew (500 ppm) was 100% in each case. The same compound registered a control of aphids with green peach aphid of 100%. Further, in the test on culex mosquito, the “control of culex mosquitoes” value is on record as 100%. The “control against wheat powdery mildew” value in the test on wheat powdery mildew (50 ppm) and in the test on wheat powdery mildew (500 ppm) was 100% throughout.

Regarding `CO/C=C(/C(=O)OC)c1ccccc1COc1cc(-c2ccccc2)nn1C` [Compound 1], the “control against cucumber downy mildew” value in the test on cucumber downy mildew (50 ppm) and in the test on cucumber downy mildew (500 ppm) was 100% each time. Also, the “control against wheat powdery mildew” value with wheat powdery mildew (50 ppm) and in the test on wheat powdery mildew (500 ppm) was 100% in each case.

Take `CO/C=C(/C(=O)OC)c1ccccc1COc1cc(-c2ccc(Cl)cc2)nn1C` [Compound 2]: the “control against tomato early blight” value in the test with tomato early blight is given as “more than 80%”. Further, the “control against wheat head blight” value in the test on wheat head blight is “more than 80%”. Further, the “control against grape downy mildew” value with grape downy mildew is reported as “more than 80%”. In addition, the “control against cucumber downy mildew” value in the test on cucumber downy mildew (50 ppm) and with cucumber downy mildew (500 ppm) was 100% in each case. The “control against corn southern leaf blight” value in [1] is “more than 80%”. Besides, in the test with tomato late blight, the “control against tomato late blight” value is on record as “more than 80%”. The “control against apple ring rot” value in the test with apple ring rot is “more than 80%”. For the same compound, the “control against apple alternaria leaf spot” value in test [2] is “more than 80%”. Further, the “control against grape white rot” value with grape white rot is given as “more than 80%”. The “control against rape sclerotiniose” value in the test on rape sclerotiniose is “more than 80%”. Moreover, the “control against wheat powdery mildew” value in the test with wheat powdery mildew (50 ppm) and in the test on wheat powdery mildew (500 ppm) was 100% each time.

In the case of `CO/C=C(/C(=O)OC)c1ccccc1COc1cc(-c2ccc(Oc3ccccc3)cc2)nn1C` [Compound 174], the “control against wheat powdery mildew” value with wheat powdery mildew (500 ppm) is recorded as 100%.

Consider `CO/C=C(/C(=O)OC)c1ccccc1COc1cc(-c2ccc(Cl)cc2)no1` [Compound 84], for which the “control against cucumber downy mildew” value with cucumber downy mildew (50 ppm) and with cucumber downy mildew (500 ppm) was 100% each time. Further, the “control against wheat powdery mildew” value with wheat powdery mildew (50 ppm) and in the test with wheat powdery mildew (500 ppm) was 100% throughout.

On to `CO/C=C(/C(=O)OC)c1ccccc1COc1cc(-c2ccc([N+](=O)[O-])cc2)nn1C` [Compound 4], for which the “control against cucumber downy mildew” value in the test with cucumber downy mildew (50 ppm) and in the test on cucumber downy mildew (500 ppm) was 100% throughout. Besides, the “control against wheat powdery mildew” value with wheat powdery mildew (50 ppm) and in the test with wheat powdery mildew (500 ppm) was 100% each time.

With `CO/C=C(/C(=O)OC)c1ccccc1COc1c(Cl)c(-c2ccc(-c3ccc(Cl)cc3)cc2)nn1C` [Compound 179], the “control against wheat powdery mildew” value with wheat powdery mildew (500 ppm) is listed as 100%.

As to `CNC(=O)/C(=N/OC)c1ccccc1COc1cc(-c2ccc(Cl)cc2)nn1C` [Compound 356], the “control against wheat powdery mildew” value in the test on wheat powdery mildew (500 ppm) is 100%.

Regarding `CO/C=C(/C(=O)OC)c1ccccc1COc1cc(-c2ccc(Cl)nc2)nn1C` [Compound 69], the “control against cucumber downy mildew” value with cucumber downy mildew (50 ppm) and in the test with cucumber downy mildew (500 ppm) was 100% each time. Also, the “control against wheat powdery mildew” value in the test with wheat powdery mildew (50 ppm) and in the test with wheat powdery mildew (500 ppm) was 100% throughout.

As to `CO/C=C(/C(=O)OC)c1ccccc1COc1cc(-c2ccc(C(F)(F)F)cc2)nn1C` [Compound 5], the “control against cucumber downy mildew” value in the test with cucumber downy mildew (50 ppm) and in the test on cucumber downy mildew (500 ppm) was 100% each time. Besides, the “control against wheat powdery mildew” value with wheat powdery mildew (50 ppm) and in the test on wheat powdery mildew (500 ppm) was 100% in each case.

With `CO/C=C(/C(=O)OC)c1ccccc1COc1cc(-c2ccc(Cl)cc2)nn1C(C)C` [Compound 190], the “control against cucumber downy mildew” value in the test on cucumber downy mildew (500 ppm) was found to be 100%. Besides, the “control against wheat powdery mildew” value with wheat powdery mildew (500 ppm) amounted to 100%.

In the case of `CO/C=C(/C(=O)OC)c1ccccc1COc1cc(-c2ccc(OC)c(OC)c2)nn1C` [Compound 12], the “control against cucumber downy mildew” value in the test with cucumber downy mildew (500 ppm) amounted to 100%. In the test on wheat powdery mildew (500 ppm), the “control against wheat powdery mildew” value is 100%.

Regarding `CO/N=C(/C(=O)OC)c1ccccc1COc1cc(-c2ccc(Cl)cc2)nn1C` [Compound 248], in the test with cucumber downy mildew (500 ppm), the “control against cucumber downy mildew” value is on record as 100%. For the same compound, in the test with wheat powdery mildew (500 ppm), the “control against wheat powdery mildew” value was 100%.

For `CO/C=C(/C(=O)OC)c1ccccc1COc1cc(-c2ccc(SC)cc2)nn1C` [Compound 165], the “control against wheat powdery mildew” value in the test on wheat powdery mildew (500 ppm) worked out at 100%.

(Values after patent US7795179B2, “Substituted azole compounds and its preparation and use thereof” (Shenyang Research Institute of Chemical Industry, priority 2004, dated 2010).)
